Patent US11866450B2, “Modulators of Cystic Fibrosis Transmembrane Conductance regulator, pharmaceutical compositions, methods of treatment, and process for making the modulators” (priority 2018, dated 2024)

Target: CFTR-mediated chloride transport (Homo sapiens, UniProt P13569)
Type: cell-based
Settings: enteroid cells incubated with test compound 18-24 hours, acute 10 μM forskolin and 300 nM Compound III; for Max. Activity: % of chloride transport with 3 μM Compound A, 3 μM Compound II and 300 nM acute Compound III triple combination control
Method in brief: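 Human intestinal enteroid cells incubated with compound 18–24 h at 37° C., then membrane potential dye (FLIPR) read 15 min after chloride-free stimulation with 10 μM forskolin, 100 μM IBMX and 300 nM Compound III. AUC expressed as % of triple-combination control (3 μM Compound A, 3 μM Compound II, 300 nM Compound III).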

Sequence of CFTR-mediated chloride transport (P13569 whole entry, looked up): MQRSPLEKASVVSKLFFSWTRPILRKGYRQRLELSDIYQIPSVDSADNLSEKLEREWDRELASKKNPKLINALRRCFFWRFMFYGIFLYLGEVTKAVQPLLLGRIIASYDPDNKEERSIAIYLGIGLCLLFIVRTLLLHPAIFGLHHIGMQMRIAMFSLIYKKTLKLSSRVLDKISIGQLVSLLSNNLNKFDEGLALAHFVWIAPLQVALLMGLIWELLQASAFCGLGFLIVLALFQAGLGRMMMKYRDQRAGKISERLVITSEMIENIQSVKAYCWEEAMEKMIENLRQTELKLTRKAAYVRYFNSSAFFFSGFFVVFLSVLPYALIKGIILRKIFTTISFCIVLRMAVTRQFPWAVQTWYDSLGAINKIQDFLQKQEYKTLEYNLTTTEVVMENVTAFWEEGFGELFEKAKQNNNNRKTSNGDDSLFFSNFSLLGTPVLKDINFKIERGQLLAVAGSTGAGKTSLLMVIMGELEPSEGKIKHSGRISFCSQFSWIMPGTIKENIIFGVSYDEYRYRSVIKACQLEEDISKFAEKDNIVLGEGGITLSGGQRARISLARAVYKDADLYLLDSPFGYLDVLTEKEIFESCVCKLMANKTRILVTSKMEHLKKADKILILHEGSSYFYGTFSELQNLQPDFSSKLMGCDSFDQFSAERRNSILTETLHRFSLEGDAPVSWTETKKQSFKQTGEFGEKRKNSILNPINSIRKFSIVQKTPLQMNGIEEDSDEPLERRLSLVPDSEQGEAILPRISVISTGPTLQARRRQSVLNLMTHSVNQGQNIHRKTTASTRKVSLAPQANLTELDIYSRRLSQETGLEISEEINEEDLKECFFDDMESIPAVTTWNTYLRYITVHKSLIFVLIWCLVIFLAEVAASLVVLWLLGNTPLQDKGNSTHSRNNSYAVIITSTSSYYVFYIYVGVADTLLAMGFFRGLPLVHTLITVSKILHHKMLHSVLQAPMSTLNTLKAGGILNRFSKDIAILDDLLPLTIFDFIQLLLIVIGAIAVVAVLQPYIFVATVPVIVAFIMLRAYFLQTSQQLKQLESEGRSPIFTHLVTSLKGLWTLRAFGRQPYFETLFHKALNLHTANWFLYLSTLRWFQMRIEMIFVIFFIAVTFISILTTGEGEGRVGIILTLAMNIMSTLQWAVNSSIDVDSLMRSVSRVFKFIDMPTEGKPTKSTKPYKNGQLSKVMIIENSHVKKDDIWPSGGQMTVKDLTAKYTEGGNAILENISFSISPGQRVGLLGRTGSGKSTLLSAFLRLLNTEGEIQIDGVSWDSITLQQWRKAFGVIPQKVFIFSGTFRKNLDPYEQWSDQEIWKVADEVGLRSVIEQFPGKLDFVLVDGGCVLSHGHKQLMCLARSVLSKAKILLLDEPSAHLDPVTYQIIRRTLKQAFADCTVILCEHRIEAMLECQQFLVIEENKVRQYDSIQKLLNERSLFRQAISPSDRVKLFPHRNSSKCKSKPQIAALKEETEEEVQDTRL

Row | Compound | EC50 | Max. Activity
1 | CC1(C)C[C@@H]2CCCn3ccc(n3)S(=O)(=O)NC(=O)c3ccc(-n4ccc(OCCC5(C(F)(F)F)CC5)n4)nc3N1C2 [Compound 85, (18S)-20,20-dimethyl-4-(3-{2-[1-(trifluoromethyl)cyclopropyl]ethoxy}-1H-pyrazol-1-yl)-10λ^6-thia-1,3,9,14,22-pentaazatetracyclo[16.2.1.111,14.02,7]docosa-2,4,6,11(22),12-pentaene-8,10,10-trione] | < 1000 nM | +++ (+++ is >60%)
2 | CC1(C)C[C@H]2CCCn3ccc(n3)S(=O)(=O)NC(=O)c3ccc(N4CCC(OCCC5(C(F)(F)F)CC5)C4=O)nc3N1C2 (stereo in doubt) [Compound 183, 20,20-Dimethyl-4-(2-oxo-3-{2-[1-(trifluoromethyl)cyclopropyl]ethoxy}pyrrolidin-1-yl)-10λ^6-thia-1,3,9,14,22-pentaazatetracyclo[16.2.1.111,14.02,7]docosa-2,4,6,11(22),12-pentaene-8,10,10-trione] | < 1000 nM | ++ (++ is 30-60%)
3 | CC1(C)C[C@@H]2CCCNc3cccc(n3)S(=O)(=O)NC(=O)c3ccc(N4CC[C@H](CCCC5(C(F)(F)F)CC5)C4=O)nc3N1C2 (single isomer, unassigned) [Compound 175] | < 1000 nM | +++ (+++ is >60%)
4 | CC1(C)C[C@@H]2CCCNc3cccc(n3)S(=O)(=O)NC(=O)c3ccc(N4CCN(CCC5(C(F)(F)F)CC5)C4=O)nc3N1C2 [Compound 211, (14S)-12,12-Dimethyl-8-(2-oxo-3-{2-[1-(trifluoromethyl)cyclopropyl]ethyl}imidazolidin-1-yl)-2λ^6-thia-3,9,11,18,23-pentaazatetracyclo[17.3.1.111,14.05,10]tetracosa-1(22),5,7,9,19(23),20-hexaene-2,2,4-trione] | < 1000 nM | ++ (++ is 30-60%)
5 | C[C@@H]1CC[C@H]2CN(c3nc(-n4ccc(OCCC5(C(F)(F)F)CC5)n4)ccc3C(=O)NS(=O)(=O)c3cccc(n3)N1)C(C)(C)C2 (single isomer, unassigned) [Compound 61, 12,12,17-trimethyl-8-(3-{2-[1-(trifluoromethyl)cyclopropyl]ethoxy}-1H-pyrazol-1-yl)-2λ^6-thia-3,9,11,18,23-pentaazatetracyclo[17.3.1.111,14.05,10]tetracosa-1(23),5(10),6,8,19,21-hexaene-2,2,4-trione] | < 1000 nM | +++ (+++ is >60%)
6 | CC1(C)C[C@H]2CCCNc3cccc(n3)S(=N)(=O)NC(=O)c3ccc(-n4ccc(OCCC5(C(F)(F)F)CC5)n4)nc3N1C2 (single isomer, unassigned) [Compound 272, 2-imino-12,12-dimethyl-8-(3-{2-[1-(trifluoromethyl)cyclopropyl]ethoxy}-1H-pyrazol-1-yl)-2λ^6-thia-3,9,11,18,23-pentaazatetracyclo[17.3.1.111,14.05,10]tetracosa-1(23),5,7,9,19,21-hexaene-2,4-dione] | > 3000 nM | + (+ is <30%)
7 | CC1(C)C[C@H]2CCCCc3ccc(cc3)S(=O)(=O)NC(=O)c3ccc(-n4ccc(OCCC5(C(F)(F)F)CC5)n4)nc3N1C2 (single isomer, unassigned) [Compound 55, 12,12-Dimethyl-8-(3-{2-[1-(trifluoromethyl)cyclopropyl]ethoxy}-1H-pyrazol-1-yl)-2λ^6-thia-3,9,11-triazatetracyclo[17.2.2.111,14.05,10]tetracosa-1(21),5,7,9,19,22-hexaene-2,2,4-trione] | < 1000 nM | +++ (+++ is >60%)
8 | CC(C)(C)CCO[C@H]1CCN(c2ccc3c(n2)N2C[C@@H](CCCNc4cccc(n4)S(=O)(=O)NC3=O)CC2(C)C)C1=O (single isomer, unassigned) [Compound 170] | < 1000 nM | ++ (++ is 30-60%)
9 | CC1(C)CC2CCCNc3cccc(n3)S(=N)(=O)NC(=O)c3ccc(-n4ccc(OCCC5(C(F)(F)F)CC5)n4)nc3N1C2 (stereo not shown) [Compound 263, 2-imino-12,12-dimethyl-8-(3-{2-[1-(trifluoromethyl)cyclopropyl]ethoxy}-1H-pyrazol-1-yl)-2λ^6-thia-3,9,11,18,23-pentaazatetracyclo[17.3.1.111,14.05,10]tetracosa-1(23),5,7,9,19,21-hexaene-2,4-dione] | < 1000 nM | ++ (++ is 30-60%)
10 | CC1(C)C[C@H]2CCCn3ccc(n3)S(=O)(=O)NC(=O)c3ccc(-n4ccc(OCCC(C5CC5)C5CC5)n4)nc3N1C2 (single isomer, unassigned) [Compound 153, 4-[3-(3,3-dicyclopropylpropoxy)-1H-pyrazol-1-yl]-20,20-dimethyl-10λ^6-thia-1,3,9,14,22-pentaazatetracyclo[16.2.1.111,14.02,7]docosa-2,4,6,11(22),12-pentaene-8,10,10-trione] | > 3000 nM | + (+ is <30%)
11 | CC1(C)C[C@@H]2CCCNc3cccc(n3)S(=O)(=O)NC(=O)c3ccc(N4CCC(OCCC(C)(C)C(F)(F)F)C4=O)nc3N1C2 (stereo partly drawn) [Compound 237, (14S)-12,12-dimethyl-8-[2-oxo-3-(4,4,4-trifluoro-3,3-dimethylbutoxy)pyrrolidin-1-yl]-2λ^6-thia-3,9,11,18,23-pentaazatetracyclo[17.3.1.111,14.05,10]tetracosa-1(22),5,7,9,19(23),20-hexaene-2,2,4-trione] | < 1000 nM | +++ (+++ is >60%)
12 | C[C@@H]1CC[C@H]2CN(c3nc(N4CCN(CCC(C)(C)C)C4=O)ccc3C(=O)NS(=O)(=O)c3cccc(n3)N1)C(C)(C)C2 (single isomer, unassigned) [Compound 218, 8-[3-(3,3-dimethylbutyl)-2-oxoimidazolidin-1-yl]-12,12,17-trimethyl-2λ^6-thia-3,9,11,18,23-pentaazatetracyclo[17.3.1.111,14.05,10]tetracosa-1(22),5,7,9,19(23),20-hexaene-2,2,4-trione] | > 3000 nM | + (+ is <30%)
13 | CC1(C)CC[C@@H]2CCCNc3cccc(n3)S(=O)(=O)NC(=O)c3ccc(-n4ccc(OCCC5(C(F)(F)F)CC5)n4)nc3N21 [Compound 33, (15S)-12,12-Dimethyl-8-(3-{2-[1-(trifluoromethyl)cyclopropyl]ethoxy}-1H-pyrazol-1-yl)-2λ^6-thia-3,9,11,19,24-pentaazatetracyclo[18.3.1.05,10.011,15]tetracosa-1(23),5,7,9,20(24),21-hexaene-2,2,4-trione] | > 3000 nM | + (+ is <30%)
14 | Cc1c2cnn1CCCC1CN(c3nc(-n4ccc(OCC(C)(C)C(F)(F)F)n4)ccc3C(=O)NS2(=O)=O)C(C)(C)C1 (single isomer, unassigned) [Compound 288, 20,20,22-trimethyl-4-[3-(3,3,3-trifluoro-2,2-dimethylpropoxy)-1H-pyrazol-1-yl]-10λ^6-thia-1,3,9,13,14-pentaazatetracyclo[16.2.1.111,14.02,7]docosa-2,4,6,11(22),12-pentaene-8,10,10-trione] | 1000 to 3000 nM | + (+ is <30%)
15 | CC1(C)C[C@@H]2CCCNc3cccc(n3)S(=O)(=O)NC(=O)c3ccc(-n4ccc(OC[C@@H](O)C5C6(CC6)C56CC6)n4)nc3N1C2 (single isomer, unassigned) [Compound 293] | < 1000 nM | +++ (+++ is >60%)
16 | CC1(C)C[C@H]2CCNc3cccc(n3)S(=O)(=O)NC(=O)c3ccc(-n4ccc(OCCCC5(C(F)(F)F)CC5)n4)nc3N1C2 (single isomer, unassigned) [Compound 235, 7,7-dimethyl-11-(3-{3-[1-(trifluoromethyl)cyclopropyl]propoxy}-1H-pyrazol-1-yl)-17λ^6-thia-2,8,10,16,22-pentaazatetracyclo[16.3.1.15,8.09,14]tricosa-1(22),9,11,13,18,20-hexaene-15,17,17-trione] | < 1000 nM | +++ (+++ is >60%)
17 | CC1(C)C[C@@H]2CCCNc3cc(O)cc(n3)S(=O)(=O)NC(=O)c3ccc(-n4ccc(OCCCC5(C(F)(F)F)CC5)n4)nc3N1C2 [Compound 265, (14S)-21-Hydroxy-12,12-dimethyl-8-(3-{3-[1-(trifluoromethyl)cyclopropyl]propoxy}-1H-pyrazol-1-yl)-2λ^6-thia-3,9,11,18,23-pentaazatetracyclo[17.3.1.111,14.05,10]tetracosa-1(22),5,7,9,19(23),20-hexaene-2,2,4-trione] | < 1000 nM | +++ (+++ is >60%)
18 | CC1(C)C[C@H]2CCCNc3cccc(n3)S(=N)(=O)NC(=O)c3ccc(-n4ccc(OCCC5(C(F)(F)F)CC5)n4)nc3N1C2 (single isomer, unassigned) [Compound 266, 2-Imino-12,12-dimethyl-8-(3-{2-[1-(trifluoromethyl)cyclopropyl]ethoxy}-1H-pyrazol-1-yl)-2λ^6-thia-3,9,11,18,23-pentaazatetracyclo[17.3.1.111,14.05,10]tetracosa-1(23),5,7,9,19,21-hexaene-2,4-dione] | < 1000 nM | ++ (++ is 30-60%)
19 | CC1(C)C[C@@H]2CN1c1nc(-n3ccc(OCCC4(C(F)(F)F)CC4)n3)ccc1C(=O)NS(=O)(=O)c1cccc(n1)NCCO2 (single isomer, unassigned) [Compound 75, 12,12-dimethyl-8-(3-{2-[1-(trifluoromethyl)cyclopropyl]ethoxy}-1H-pyrazol-1-yl)-15-oxa-2λ^6-thia-3,9,11,18,23-pentaazatetracyclo[17.3.1.111,14.05,10]tetracosa-1(22),5(10),6,8,19(23),20-hexaene-2,2,4-trione] | < 1000 nM | +++ (+++ is >60%)
20 | CC(C)(C)CC[C@H]1CCN(c2ccc3c(n2)N2C[C@@H](CCCNc4cccc(n4)S(=O)(=O)NC3=O)CC2(C)C)C1=O (single isomer, unassigned) [Compound 126] | < 1000 nM | ++ (++ is 30-60%)
